Results taken from US10011573B2, “Human androgen receptor DNA-binding domain (DBD) compounds as therapeutics and methods for their use” (The University of British Columbia, priority 2014, dated 2018).
Like-named read-outs stand apart in the source and are kept apart here.

Molecular target: T1, androgen receptor (AR) (Homo sapiens, UniProt P10275, T878A)
T1 sequence (P10275 1-920 T878A): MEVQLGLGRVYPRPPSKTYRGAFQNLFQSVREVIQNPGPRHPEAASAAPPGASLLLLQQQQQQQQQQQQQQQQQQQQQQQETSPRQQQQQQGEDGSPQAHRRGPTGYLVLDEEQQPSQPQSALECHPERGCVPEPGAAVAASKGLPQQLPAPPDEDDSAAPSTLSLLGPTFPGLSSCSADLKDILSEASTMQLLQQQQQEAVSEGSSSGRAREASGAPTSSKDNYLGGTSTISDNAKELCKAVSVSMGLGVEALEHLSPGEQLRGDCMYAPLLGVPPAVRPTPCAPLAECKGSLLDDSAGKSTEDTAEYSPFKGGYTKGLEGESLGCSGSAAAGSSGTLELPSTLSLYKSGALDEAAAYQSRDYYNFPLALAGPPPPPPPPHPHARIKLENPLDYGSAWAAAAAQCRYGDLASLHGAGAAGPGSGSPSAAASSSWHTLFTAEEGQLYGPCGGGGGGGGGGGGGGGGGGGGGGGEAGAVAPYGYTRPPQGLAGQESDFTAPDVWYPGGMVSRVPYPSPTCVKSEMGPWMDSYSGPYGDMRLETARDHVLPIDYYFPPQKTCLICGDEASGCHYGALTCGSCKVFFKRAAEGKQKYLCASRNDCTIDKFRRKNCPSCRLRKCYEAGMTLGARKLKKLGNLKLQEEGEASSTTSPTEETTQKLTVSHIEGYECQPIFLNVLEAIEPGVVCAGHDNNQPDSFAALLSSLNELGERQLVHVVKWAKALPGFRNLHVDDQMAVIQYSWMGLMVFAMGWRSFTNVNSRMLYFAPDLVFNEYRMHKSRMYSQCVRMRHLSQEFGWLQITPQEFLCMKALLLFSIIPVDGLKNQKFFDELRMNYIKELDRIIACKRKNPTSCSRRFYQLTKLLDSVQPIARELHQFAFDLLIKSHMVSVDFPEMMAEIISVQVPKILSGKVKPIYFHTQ
Experiment: eGFP cellular AR transcription assay (LNCaP eGFP cells, LN-ARR2PB-eGFP)
Settings: for inhibition at 3 µM: LNCaP, read-out: % Inhibition (3 μM); for anti-AR activity (AR transcriptional inhibition) in words: LNCaP (T877A AR); for eGFP IC50: 0.1 nM R1881

[1] = eGFP IC50 (μM), LNCaP eGFP cells

Structure (SMILES)	inhibition at 3 µM [%]	% Inhibition (3 μM) [%]	other results
NC(=S)N/N=C1\Cc2cccc3cccc1c23 [Compound 14005]	92.5		IC50 [1]: 2 µM
COc1cc(C)c2occ(/C(C)=N/O)c2c1 [Compound 14017]			IC50 [1]: 41.6 µM
c1ccc2cc(-n3ccnc3)ccc2c1 [Compound 14018]			IC50 [1]: 13.9 µM
c1cc2c3c(ccc(-c4ccn[nH]4)c3c1)CC2 [Compound 14053]			IC50 [1]: 4 µM
CCSc1ccc(-c2cc(C)nc(N)n2)cc1 [Compound 14055]			IC50 [1]: 10 µM
Cc1ccccc1CN1C(=O)NC2C=CC=CC21 (centres unmarked) [Compound 14065]			IC50 [1]: 10 µM
Oc1ccccc1/C=C/c1ccccn1 [Compound 14088]			IC50 [1]: 3.54 µM
c1ccc2oc(-c3csc(N4CCOCC4)n3)cc2c1 [Compound 14136]		40.98	
c1ccc2sc(-c3csc(N4CCOCC4)n3)nc2c1 [Compound 14137]		37.44	
NC(=S)N/N=C1\C(=O)c2cccc3cccc1c23 [Compound 14151]			IC50 [1]: 30 µM
CNC(=S)N/N=C1\C(=O)c2cccc3cccc1c23 [Compound 14153]			IC50 [1]: 6 µM
c1ccc2c(-n3ccnc3)cccc2c1 [Compound 14163]			IC50 [1]: 24 µM
c1ccc2cc(-c3csc(N4CCOCC4)n3)ccc2c1 [Compound 14231]		38.78	
CC1CN(c2nc(-c3ccc([N+](=O)[O-])cc3)cs2)C(C)CO1 (centres unmarked) [Compound 14247]		3.73	
CC1CN(c2nc(-c3ccc(Cl)cc3)cs2)C(C)CO1 (centres unmarked) [Compound 14248]		4.73	
COc1ccc(-c2csc(N3CCOCC3)n2)cc1 [Compound 14249]		45.16	
Brc1ccc(-c2csc(N3CCOCC3)n2)cc1 [Compound 14251]		7.96	
COc1ccc(-c2csc(N3CCOCC3)n2)cc1OC [Compound 14252]		26.03	
Nc1ccc(-c2csc(N3CCOCC3)n2)cc1 [Compound 14256]		28.14	
CCc1ccc(-c2csc(N3CCOCC3)n2)cc1 [Compound 14259]		26.26	
N#Cc1ccc(-c2csc(N3CCOCC3)n2)cc1 [Compound 14261]			% Inhibition (3 μM) (3 µM): 25.48%
Oc1ccc(-c2csc(N3CCOCC3)n2)cc1O [Compound 14267]		19.95	
COc1ccc(-c2csc(N3CCOCC3)n2)c(OC)c1 [Compound 14268]		37.55	
OCc1sc(N2CCOCC2)nc1-c1ccccc1 [Compound 14274]		5.04	

Structure (SMILES)	inhibition at 3 µM [%]	% Inhibition (3 μM) [%]	other results
CS(=O)(=O)Nc1ccc(-c2csc(N3CCOCC3)n2)cc1 [Compound 14276]		25.98	
CS(=O)(=O)c1ccc(-c2csc(N3CCOCC3)n2)cc1 [Compound 14277]		12.71	
c1cc2c(cc1-c1csc(N3CCOCC3)n1)COC2 [Compound 14282]		29.04	
Cc1ccc(-c2csc(N3CCOCC3)n2)c(C)c1 [Compound 14283]		38.89	
Cc1ccc(-c2nc(N3CCOCC3)sc2C)cc1 [Compound 14284]		30.22	
Fc1ccccc1-c1csc(N2CCOCC2)n1 [Compound 14286]		85.86	
Oc1ccc(-c2csc(N3CCOCC3)n2)c(O)c1 [Compound 14295]		24.7	
CSc1ccc(-c2csc(N3CCOCC3)n2)cc1 [Compound 14297]		109.99	
CN1CCN(c2nc(-c3ccccc3)cs2)CC1 [Compound 14338]		19.33	
NC(=O)N1CCN(c2nc(-c3ccccc3)cs2)CC1 [Compound 14339]		15.82	
Fc1ccc(-c2csc(N3CCNCC3)n2)cc1 [Compound 14340]		16.12	
Cc1sc(N2CCOCC2)nc1-c1ccc(F)cc1 [Compound 14341]		43.7	
COc1cccc(-c2csc(-c3ccccn3)n2)c1 [Compound 14343]		16.12	
Cc1sc(N2CCOCC2)nc1-c1ccccc1 [Compound 14349]			IC50 (eGFP IC50 (μM), Series 1): 1.47 µM
c1ccc(-c2csc(N3CCCC3)n2)cc1 [Compound 14351]		38.4	
COc1ccccc1-c1nc(N2CCOCC2)sc1C [Compound 14363]		29.03	
c1ccc(-c2csc(N3CCSCC3)n2)cc1 [Compound 14385]			IC50 (eGFP IC50 (μM), Series 1): 0.6 µM
Fc1ccc(-c2csc(N3CCSCC3)n2)cc1 [Compound 14386]			IC50 (eGFP IC50 (μM), Series 1): 1.6 µM
Cc1sccc1-c1csc(N2CCOCC2)n1 [Compound 14407]		38.00	
Cc1cccn1-c1csc(N2CCOCC2)n1 [Compound 14410]			IC50 (eGFP IC50 (μM), Series 1): 28.4 µM
c1ccn(-c2csc(N3CCOCC3)n2)c1 [Compound 14411]		44.00	
COc1ccc(-c2nc(-c3ccccc3)cs2)cc1 [Compound 14419]		119.36	IC50 (read-out: eGFP IC50): 6.11 µM
CS(=O)(=O)c1c(F)cccc1-c1csc(N2CCOCC2)n1 [Compound 14429]			IC50 (eGFP IC50 (μM), Series 1): 3.55 µM

Further lines, with some results ahead:

inhibition at 3 µM [%]	Structure (SMILES)	% Inhibition (3 μM) [%]	other results
65.4	C[C@@H]1C(=O)N(c2ccccc2)C2C=CC=CC21 (some centres unmarked) [Compound 14078]		IC50 [1]: 20 µM
93.1	Nc1ccccc1CN1C(=O)Cc2ccccc21 [Compound 14082]		IC50 [1]: 9.5 µM
9	c1ccc2c(N3CCOCC3)nccc2c1 [Compound 14112]		
86.8	NC(=S)N/N=C/c1cccc2ccccc12 [Compound 14164]		IC50 [1]: 3.04 µM
99.6	C/C(=N/O)c1ccc2c(C)ccc3c2c1CC3 [Compound 14171]		IC50 [1]: 3.38 µM
46.4	NC(=S)NN=C(c1ccccc1)c1ccccc1 [Compound 14172]		IC50 [1]: 29.4 µM
45.5	NC(=S)N/N=C1\CCCc2ccccc21 [Compound 14175]		IC50 [1]: 13.6 µM
54.4	Nc1nc(-c2ccc3c(c2)CCCC3)cs1 [Compound 14198]		IC50 [1]: 5.51 µM
45.8	NC(=S)NN=C1c2ccccc2-c2ccccc21 [Compound 14205]		IC50 [1]: 7.38 µM
109	C/C(=N\NC(N)=S)c1ccc2c3c(cccc13)CC2 [Compound 14206]		IC50 [1]: 3.4 µM
99.5	c1ccc2c(-c3csc(N4CCOCC4)n3)cccc2c1 [Compound 14230]		IC50 (eGFP IC50 (μM), Series 1): 1.61 µM
38.2	Clc1ccc(-c2csc(N3CCOCC3)n2)cc1 [Compound 14253]		IC50 (eGFP IC50 (μM), Series 1): 39.9 µM
3.37	O=[N+]([O-])c1ccc(-c2csc(N3CCOCC3)n2)cc1 [Compound 14254]		IC50 (eGFP IC50 (μM), Series 1): 15.8 µM
18.6	c1cc2c(cc1-c1csc(N3CCOCC3)n1)CCCC2 [Compound 14291]		anti-AR activity (AR transcriptional inhibition) in words: lost their anti-AR activity; eGFP IC50 (LNCaP eGFP cells): Low activity
40	Cc1ccc(-c2csc(N3CCOCC3)n2)cc1C [Compound 14294]		IC50 (eGFP IC50 (μM), Series 1): 10.3 µM
60	CC1CCCN(c2nc(-c3ccc(O)cc3O)cs2)C1 (centres unmarked) [Compound 14301]		IC50 (eGFP IC50 (μM), Series 1): 5 µM
66.5	Nc1cccc(-c2ccc3ccccc3n2)c1 [Compound 14321]		
27.1	Oc1ccccc1-c1ccc2cccnc2n1 [Compound 14336]		
41.6	c1ccc(-c2csc(-c3c[nH]c4ccccc34)n2)cc1 [Compound 14361]		IC50 (eGFP IC50 (μM), Series 1): 10.1 µM
109	Nc1ccc2nc(-c3cccc(O)c3)sc2c1 [Compound 14387]		IC50 [1]: 14.8 µM
44.9	OCc1cccc(-c2ccc3ccccc3n2)c1 [Compound 14388]		IC50 [1]: 10.4 µM
14.5	NC(=O)c1ccc(-c2ccc3ccccc3n2)cc1 [Compound 14389]		
31.2	c1ccc2sc(N3CCOCC3)nc2c1 [Compound 14393]		IC50 [1]: 46.6 µM
22	c1sc(N2CCOCC2)nc1C1CCCC1 [Compound 14403]		anti-AR activity (AR transcriptional inhibition) in words: lost their anti-AR activity; eGFP IC50 (LNCaP eGFP cells): Low activity
33	c1sc(N2CCOCC2)nc1C1CCCCC1 [Compound 14406]		anti-AR activity (AR transcriptional inhibition) in words: lost their anti-AR activity; eGFP IC50 (LNCaP eGFP cells): Low activity
125	Oc1ccc(-c2csc(-c3ccccc3)n2)cc1 [Compound 14420]		IC50 (eGFP IC50 (μM), Series 1): 3.73 µM
107	FC(F)(F)c1cccc(-c2csc(-c3ccncc3)n2)c1 [Compound 14421]		IC50 (eGFP IC50 (μM), Series 1): 4.61 µM
131	CC(=O)c1ccc(-c2ccccc2)s1 [Compound 14422]		IC50 (eGFP IC50 (μM), Series 1): 2.26 µM
